Test results as given in publication PMC9455983 (International Journal of Molecular Sciences, 2022).
Where two headings read alike, the source gives them in different places.

How the values were obtained:
[1] = molecular target: T1, delta-opioid receptor (DOR) (Rattus norvegicus, UniProt P33533); test: DOR radioligand competition binding assay ([3H]-DPDPE); settings: Delta screening results
T1 construct: Rat cortices were homogenized using 50 mM Tris, pH 7.4, 10 mM MgCl2-6H2O, 200 µM PMSF; from tissue; host or cells: rat cortex membranes
Protocol: DOR binding assay: Rat cortices were homogenized using 50 mM Tris, pH 7.4, 10 mM MgCl2-6H2O, 200 µM PMSF, centrifuged and incubated as above. Each assay tube contained 2 nM [^3H]-DPDPE. Assay tubes were incubated for 2.5 h at 25 °C. Unlabeled DPDPE was used as a competitor to generate a standard curve and determine nonspecific binding.
(§1) All three binding assays were terminated by filtration through GF/B filters, soaked in 5 mg/mL bovine serum albumin, 50 mM Tris, pH 7.4, on a Tomtec Mach II Harvester 96. The filters were subsequently washed with 6 mL of assay buffer. Bound radioactivity was counted on a Wallac Betaplate Liquid Scintillation Counter. Experiments were conducted using two replicates and repeated twice. Values in Scheme 2 represent the mean ± SD of two experiments with two replicates in each test.

[2] = molecular target: T2, kappa-opioid receptor (KOR) (Cavia porcellus, UniProt P41144); test: KOR radioligand competition binding assay ([3H]U69,593); design: species or system guinea pig; settings: Kappa screening results
T2 construct: Guinea pig cortices and cerebella were homogenized using 50 mM Tris, pH 7.4; from tissue; host or cells: guinea pig cortex and cerebellum membranes
Protocol: KOR binding assay: Guinea pig cortices and cerebella were homogenized using 50 mM Tris, pH 7.4, 10 mM MgCl2-6H2O, […] centrifuged and incubated as above. Each assay tube contained 2 nM [^3H]U69,593. Assay tubes were incubated for 2 h at 25 °C. Unlabeled U50,488 was used as a competitor to generate a standard curve and determine nonspecific binding.
as §1

mu-opioid receptor (MOR) = molecular target: T3, mu-opioid receptor (MOR) (Rattus norvegicus, UniProt P33535); test: MOR radioligand competition binding assay ([3H]-DAMGO); settings: Mu screening results
T3 construct: Rat cortices were homogenized using 50 mM Tris, pH 7.4, and centrifuged at 16,500 rpm for 10 min; from tissue; host or cells: rat cortex membranes
Protocol: MOR binding assay: Rat cortices were homogenized using 50 mM Tris, pH 7.4, and centrifuged at 16,500 rpm for 10 min. The pellets were resuspended in fresh buffer and incubated at 37 °C for 30 min. Following incubation, the suspensions were centrifuged as before, the resulting pellets were resuspended in 100 volumes of 50 mM Tris, pH 7.4 plus 2 mg/mL bovine serum and the suspensions combined. Each assay tube contained 0.5 mL of membrane suspension, 2 nM [^3H]-DAMGO, and 0.02 mg/mL mixture in a total volume of 0.65 mL [13, 45, 53, 55].
as §1

[3] = first Ki column, unit not printed (apparently M), read-out: Ki (first column)
[4] = mean of both Ki, unit inferred, read-out: MEAN (Ki)
[5] = mean of two experiments, read-out: Ki
[6] = second Ki column, unit not printed (apparently M), read-out: Ki (second column)
[7] = experiment 1, unit inferred, read-out: Ki (Exp 1)
[8] = experiment 2, unit inferred, read-out: Ki (Exp 2)
[9] = mean of Exp 1 and Exp 2, unit inferred, read-out: MEAN (Ki)

SMILES | Ki [1, 3] [nM] | Ki [1, 4] [nM] | Ki [1, 5] [nM] | Ki [1, 6] [nM] | Ki [2, 7] [nM] | Ki [2, 8] [nM] | Ki [2, 9] [nM] | Ki [2, 5] [nM] | Ki (mu-opioid receptor (MOR); [7]) [nM] | Ki (mu-opioid receptor (MOR); [8]) [nM] | Ki (mu-opioid receptor (MOR); [9]) [nM] | Ki (mu-opioid receptor (MOR); [5]) [nM]
Cc1cc(O)cc(C)c1C[C@H]1CNC(=N)N1C[C@H](Cc1ccc(O)cc1)N1C[C@H](Cc2ccc(O)cc2)NC1=N [1968-54] | 3550 | 3280 | 3280 | 3010 | 1460 | 1600 | 1530 | 1530 | 72.3 | 56.4 | 64.3 | 64
Cc1cc(O)cc(C)c1C[C@H]1CN([C@@H](Cc2ccc(O)cc2)CN2C(=N)NC[C@@H]2Cc2c(C)cc(O)cc2C)C(=N)N1 [1968-56] | 1330 | 1300 | 1300 | 1260 | 736 | 1250 | 991 | 991 | 55 | 69.9 | 62.5 | 62
Cc1cc(O)cc(C)c1C[C@H]1CNC(=N)N1C[C@H](CC(C)C)N1C[C@H](Cc2ccccc2)NC1=N [1968-57] | 1400 | 1240 | 1240 | 1070 | 371 | 679 | 525 | 525 | 59.6 | 74.1 | 66.8 | 67
Cc1cc(O)cc(C)c1C[C@H]1CNC(=N)N1C[C@H](CC(C)C)N1C[C@H](Cc2ccc(O)cc2)NC1=N [1968-58] | 1150 | 896 | 896 | 638 | 542 | 775 | 659 | 659 | 55.1 | 62 | 58.6 | 59
Cc1cc(O)cc(C)c1C[C@H]1CNC(=N)N1C[C@H](CC(C)C)N1C[C@H](CC(C)C)NC1=N [1968-59] | 3840 | 4210 | 4210 | 4580 | 223 | 313 | 268 | 268 | 166 | 156 | 161 | 161
Cc1cc(O)cc(C)c1C[C@H]1CN([C@@H](CC(C)C)CN2C(=N)NC[C@@H]2Cc2c(C)cc(O)cc2C)C(=N)N1 [1968-60] | 978 | 814 | 814 | 651 | 308 | 422 | 365 | 365 | 66.4 | 71.2 | 68.8 | 69
Cc1cc(O)cc(C)c1C[C@H]1CNC(=N)N1C[C@H](Cc1c(C)cc(O)cc1C)N1C[C@H](Cc2ccccc2)NC1=N [1968-61] | 1060 | 1020 | 1020 | 985 | 877 | 1230 | 1050 | 1050 | 40.3 | 56.5 | 48.4 | 48
Cc1cc(O)cc(C)c1C[C@H]1CNC(=N)N1C[C@H](Cc1c(C)cc(O)cc1C)N1C[C@H](Cc2ccc(O)cc2)NC1=N [1968-62] | 1530 | 1280 | 1280 | 1020 | 2300 | 2340 | 2320 | 2320 | 64.2 | 78.4 | 71.3 | 71
